# Results taken from ChEMBL document CHEMBL4308841, “Synthesis, in vitro antiproliferative activity, and kinase inhibitory effects of pyrazole-containing diarylureas and diarylamides” (Eur J Med Chem, 2018).
# pIC50: −log10 of the molar value.
# Legend:
# HOP-62 = assay: Growth inhibition of human HOP62 cells assessed as cell growth at 10 uM incubated for 48 hrs by sulforhodamine B assay relative to control; assay type: functional; conditions: HOP-62, 48 h, read-out: Activity
# MOLT-4 [1] = assay: Growth inhibition of human MOLT4 cells assessed as cell growth at 0.1 uM incubated for 48 hrs by sulforhodamine B assay relative to control; assay type: functional; conditions: MOLT-4, 48 h, read-out: Activity
# NCI-H322M = assay: Growth inhibition of human NCI-H322M cells assessed as cell growth at 10 uM incubated for 48 hrs by sulforhodamine B assay relative to control; assay type: functional; conditions: read-out: Activity
# NCI-H460 = assay: Growth inhibition of human NCI-H460 cells assessed as cell growth at 0.01 uM incubated for 48 hrs by sulforhodamine B assay relative to control; assay type: functional; conditions: NCI-H460, 48 h, read-out: Activity
# OVCAR-5 [2] = assay: Growth inhibition of human OVCAR5 cells assessed as cell growth at 1 uM incubated for 48 hrs by sulforhodamine B assay relative to control; assay type: functional; conditions: OVCAR-5, 48 h, read-out: Activity
# NCI-H23 [3] = assay: Growth inhibition of human NCI-H23 cells assessed as cell growth at 100 uM incubated for 48 hrs by sulforhodamine B assay relative to control; assay type: functional; conditions: NCI-H23, 48 h, read-out: Activity
# OVCAR-8 = assay: Growth inhibition of human OVCAR8 cells assessed as cell growth at 10 uM incubated for 48 hrs by sulforhodamine B assay relative to control; assay type: functional; conditions: OVCAR-8, 48 h, read-out: Activity
# OVCAR-5 [4] = assay: Growth inhibition of human OVCAR5 cells incubated for 48 hrs by sulforhodamine B assay; assay type: functional, cell-based; conditions: OVCAR-5, 48 h
# MOLT-4 [5] = assay: Growth inhibition of human MOLT4 cells assessed as cell growth at 0.01 uM incubated for 48 hrs by sulforhodamine B assay relative to control; assay type: functional; conditions: MOLT-4, 48 h, read-out: Activity
# Malme-3M = assay: Growth inhibition of human MALME-3M cells assessed as cell growth at 10 uM incubated for 48 hrs by sulforhodamine B assay relative to control; assay type: functional; conditions: read-out: Activity
# UACC-257 = assay: Growth inhibition of human UACC257 cells assessed as cell growth at 1 uM incubated for 48 hrs by sulforhodamine B assay relative to control; assay type: functional; conditions: UACC-257, 48 h, read-out: Activity
# RPMI-8226 = assay: Growth inhibition of human RPMI8226 cells assessed as cell growth at 10 uM incubated for 48 hrs by sulforhodamine B assay relative to control; assay type: functional; conditions: RPMI-8226, 48 h, read-out: Activity
# KM12 = assay: Growth inhibition of human KM12 cells assessed as cell growth at 10 uM incubated for 48 hrs by sulforhodamine B assay relative to control; assay type: functional; conditions: KM12, 48 h, read-out: Activity
# NCI-H23 [6] = assay: Growth inhibition of human NCI-H23 cells assessed as cell growth at 10 uM incubated for 48 hrs by sulforhodamine B assay relative to control; assay type: functional; conditions: NCI-H23, 48 h, read-out: Activity
# NCI/ADR-RES = assay: Growth inhibition of human NCI/ADR-RES cells assessed as cell growth at 10 uM incubated for 48 hrs by sulforhodamine B assay relative to control; assay type: functional; conditions: read-out: Activity
# UO-31 [7] = assay: Growth inhibition of human UO31 cells assessed as cell growth at 0.1 uM incubated for 48 hrs by sulforhodamine B assay relative to control; assay type: functional; conditions: UO-31, 48 h, read-out: Activity
# TK-10 = assay: Growth inhibition of human TK10 cells assessed as cell growth at 10 uM incubated for 48 hrs by sulforhodamine B assay relative to control; assay type: functional; conditions: TK-10, 48 h, read-out: Activity
# OVCAR-3 = assay: Growth inhibition of human OVCAR3 cells assessed as cell growth at 10 uM incubated for 48 hrs by sulforhodamine B assay relative to control; assay type: functional; conditions: OVCAR-3, 48 h, read-out: Activity
# HCC 2998 = assay: Growth inhibition of human HCC2998 cells assessed as cell growth at 10 uM incubated for 48 hrs by sulforhodamine B assay relative to control; assay type: functional; conditions: HCC 2998, 48 h, read-out: Activity
# BT-549 = assay: Growth inhibition of human BT549 cells assessed as cell growth at 10 uM incubated for 48 hrs by sulforhodamine B assay relative to control; assay type: functional; conditions: BT-549, 48 h, read-out: Activity
# IGROV-1 = assay: Growth inhibition of human IGROV1 cells assessed as cell growth at 10 uM incubated for 48 hrs by sulforhodamine B assay relative to control; assay type: functional; conditions: IGROV-1, 48 h, read-out: Activity
# SNB-19 = assay: Growth inhibition of human SNB19 cells assessed as cell growth at 10 uM incubated for 48 hrs by sulforhodamine B assay relative to control; assay type: functional; conditions: SNB-19, 48 h, read-out: Activity
# SF-539 = assay: Growth inhibition of human SF539 cells assessed as cell growth at 10 uM incubated for 48 hrs by sulforhodamine B assay relative to control; assay type: functional; conditions: SF-539, 48 h, read-out: Activity
# MDA-MB-231 = assay: Growth inhibition of human MDA-MB-231 cells assessed as cell growth at 10 uM incubated for 48 hrs by sulforhodamine B assay relative to control; assay type: functional; conditions: MDA-MB-231, 48 h, read-out: Activity
# M14 = assay: Growth inhibition of human M14 cells assessed as cell growth at 10 uM incubated for 48 hrs by sulforhodamine B assay relative to control; assay type: functional; conditions: M14, 48 h, read-out: Activity
# UO-31 [8] = assay: Growth inhibition of human UO31 cells incubated for 48 hrs by sulforhodamine B assay; assay type: functional, cell-based; conditions: UO-31, 48 h
# SF-268 = assay: Growth inhibition of human SF268 cells assessed as cell growth at 100 uM incubated for 48 hrs by sulforhodamine B assay relative to control; assay type: functional; conditions: SF-268, 48 h, read-out: Activity
# SW-620 = assay: Growth inhibition of human SW620 cells assessed as cell growth at 10 uM incubated for 48 hrs by sulforhodamine B assay relative to control; assay type: functional; conditions: SW-620, 48 h, read-out: Activity
# RXF 393 = assay: Growth inhibition of human RXF393 cells assessed as cell growth at 10 uM incubated for 48 hrs by sulforhodamine B assay relative to control; assay type: functional; conditions: RXF 393, 48 h, read-out: Activity
# MCF7 = assay: Growth inhibition of human MCF7 cells assessed as cell growth at 10 uM incubated for 48 hrs by sulforhodamine B assay relative to control; assay type: functional; conditions: MCF7, 48 h, read-out: Activity
# K562 = assay: Growth inhibition of human K562 cells assessed as cell growth at 10 uM incubated for 48 hrs by sulforhodamine B assay relative to control; assay type: functional; conditions: K562, 48 h, read-out: Activity
# MDA-MB-468 = assay: Growth inhibition of human MDA-MB-468 cells assessed as cell growth at 10 uM incubated for 48 hrs by sulforhodamine B assay relative to control; assay type: functional; conditions: MDA-MB-468, 48 h, read-out: Activity
# [9] = read-out: LC50 (the source's name)
# [10] = read-out: pLC50 (the source's name) (converted)
smiles,measurement,setting,value
COc1cc(Cl)cc(-c2nn(-c3cccc(NC(=O)c4ccc(N5CCOCC5)c(C(F)(F)F)c4)c3)cc2-c2ccncc2)c1,growth at 10 µM,HOP-62,52.1%
same,growth at 0.1 µM,MOLT-4 [1],90%
same,growth at 10 µM,NCI-H322M,89.6%
same,growth at 0.01 µM,NCI-H460,102%
same,growth at 1 µM,OVCAR-5 [2],75%
same,growth at 100 µM,NCI-H23 [3],38%
same,growth at 10 µM,OVCAR-8,42.1%
same,GI50,OVCAR-5 [4]; read-out: GI50,3.25 µM
same,CC50,OVCAR-5 [4]; [9],> 100 µM
same,TGI,OVCAR-5 [4]; read-out: TGI,> 100 µM
same,GI50,OVCAR-5 [4]; read-out: pGI50 (converted),32.4 µM
same,CC50,OVCAR-5 [4]; [10],> 100 µM
same,TGI,OVCAR-5 [4]; read-out: pTGI (converted),> 100 µM
same,growth at 0.01 µM,MOLT-4 [5],100%
same,growth at 10 µM,Malme-3M,57.9%
same,growth at 1 µM,UACC-257,98%
same,growth at 10 µM,RPMI-8226,25.2%
same,growth at 10 µM,KM12,38.4%
same,growth at 10 µM,NCI-H23 [6],79%
same,growth at 10 µM,NCI/ADR-RES,46.1%
same,growth at 0.1 µM,UO-31 [7],87%
same,growth at 10 µM,TK-10,90.6%
same,growth at 10 µM,OVCAR-3,69.4%
same,growth at 10 µM,HCC 2998,52.3%
same,growth at 10 µM,BT-549,73%
same,growth at 10 µM,IGROV-1,96.5%
same,growth at 10 µM,SNB-19,75.5%
same,growth at 10 µM,SF-539,52.1%
same,growth at 10 µM,MDA-MB-231,11.4%
same,growth at 10 µM,M14,56.7%
same,pIC50,UO-31 [8],5.35
same,GI50,UO-31 [8]; read-out: GI50,4.5 µM
same,CC50,UO-31 [8]; [9],> 100 µM
same,TGI,UO-31 [8]; read-out: TGI,> 100 µM
same,GI50,UO-31 [8]; read-out: pGI50 (converted),4.47 µM
same,CC50,UO-31 [8]; [10],> 100 µM
same,TGI,UO-31 [8]; read-out: pTGI (converted),> 100 µM
same,growth at 100 µM,SF-268,53%
same,growth at 10 µM,SW-620,69.2%
same,growth at 10 µM,RXF 393,12.4%
same,growth at 10 µM,MCF7,45.3%
same,growth at 10 µM,K562,4.03%
same,growth at 10 µM,MDA-MB-468,50.2%
